Data taken from ChEMBL document CHEMBL1806489, “Synthesis and biological evaluation of novel F-18 labeled pyrazolo[1,5-a]pyrimidine derivatives: potential PET imaging agents for tumor detection” (Bioorg Med Chem Lett, 2011).

How the values were obtained:
[1] = system: Lung; experiment: Biodistribution in mouse S180 cells xenografted Kunming mouse lung at 370 kBq/0.1 mL, iv after 30 mins by gamma counting; format: ADME, organism-based, CCRF S-180; details: in vivo, 0.5 h
[2] = system: Spleen; experiment: Biodistribution in mouse S180 cells xenografted Kunming mouse spleen at 370 kBq/0.1 mL, iv after 15 mins by gamma counting; format: ADME, organism-based, CCRF S-180; details: in vivo, 0.25 h
[3] = system: Brain; experiment: Biodistribution in mouse S180 cells xenografted Kunming mouse brain at 370 kBq/0.1 mL, iv after 30 mins by gamma counting; format: ADME, organism-based, CCRF S-180; details: in vivo, 0.5 h
[4] = system: Plasma; experiment: Metabolic stability in mouse plasma at 3.7 MBq after 1 to 2 hrs; format: ADME, cell-free
[5] = system: Nucleic Acid; experiment: Ratio of drug level in tumor to brain in mouse S180 cells xenografted Kunming mouse at 370 kBq/0.1 mL, iv after 30 mins by gamma counting; format: ADME, organism-based, CCRF S-180; details: in vivo, 0.5 h
[6] = system: Nucleic Acid; experiment: Ratio of drug level in tumor to brain in mouse S180 cells xenografted Kunming mouse at 370 kBq/0.1 mL, iv after 15 mins by gamma counting; format: ADME, organism-based, CCRF S-180; details: in vivo, 0.25 h
[7] = system: Liver; experiment: Biodistribution in mouse S180 cells xenografted Kunming mouse liver at 370 kBq/0.1 mL, iv after 15 mins by gamma counting; format: ADME, organism-based, CCRF S-180; details: in vivo, 0.25 h
[8] = system: Nucleic Acid; experiment: Ratio of drug level in tumor to muscle in mouse S180 cells xenografted Kunming mouse at 370 kBq/0.1 mL, iv after 30 mins by gamma counting; format: ADME, organism-based, CCRF S-180; details: in vivo, 0.5 h
[9] = system: Liver; experiment: Biodistribution in mouse S180 cells xenografted Kunming mouse liver at 370 kBq/0.1 mL, iv after 60 mins by gamma counting; format: ADME, organism-based, CCRF S-180; details: in vivo, 1 h
[10] = system: Lung; experiment: Biodistribution in mouse S180 cells xenografted Kunming mouse lung at 370 kBq/0.1 mL, iv after 120 mins by gamma counting; format: ADME, organism-based, CCRF S-180; details: in vivo, 2 h
[11] = system: Heart; experiment: Biodistribution in mouse S180 cells xenografted Kunming mouse heart at 370 kBq/0.1 mL, iv after 5 mins by gamma counting; format: ADME, organism-based, CCRF S-180; details: in vivo
[12] = system: Nucleic Acid; experiment: Ratio of drug level in tumor to muscle in mouse S180 cells xenografted Kunming mouse at 370 kBq/0.1 mL, iv after 120 mins by gamma counting; format: ADME, organism-based, CCRF S-180; details: in vivo, 2 h
[13] = system: Nucleic Acid; experiment: Ratio of drug level in tumor to muscle in mouse S180 cells xenografted Kunming mouse at 370 kBq/0.1 mL, iv after 15 mins by gamma counting; format: ADME, organism-based, CCRF S-180; details: in vivo, 0.25 h
[14] = system: Brain; experiment: Biodistribution in mouse S180 cells xenografted Kunming mouse brain at 370 kBq/0.1 mL, iv after 5 mins by gamma counting; format: ADME, organism-based, CCRF S-180; details: in vivo
[15] = system: Mus musculus; experiment: Biodistribution in mouse S180 cells xenografted Kunming mouse tumor at 370 kBq/0.1 mL, iv after 15 mins by gamma counting; format: ADME, organism-based, Neoplasm, CCRF S-180; details: in vivo, 0.25 h
[16] = system: Nucleic Acid; experiment: Ratio of drug level in tumor to brain in mouse S180 cells xenografted Kunming mouse at 370 kBq/0.1 mL, iv after 5 mins by gamma counting; format: ADME, organism-based, CCRF S-180; details: in vivo
[17] = system: Muscle tissue; experiment: Biodistribution in mouse S180 cells xenografted Kunming mouse muscle at 370 kBq/0.1 mL, iv after 120 mins by gamma counting; format: ADME, organism-based, CCRF S-180; details: in vivo, 2 h
[18] = system: Muscle tissue; experiment: Biodistribution in mouse S180 cells xenografted Kunming mouse muscle at 370 kBq/0.1 mL, iv after 5 mins by gamma counting; format: ADME, organism-based, CCRF S-180; details: in vivo
[19] = system: Blood; experiment: Biodistribution in mouse S180 cells xenografted Kunming mouse blood at 370 kBq/0.1 mL, iv after 60 mins by gamma counting; format: ADME, organism-based, CCRF S-180; details: in vivo, 1 h
[20] = system: Mus musculus; experiment: Biodistribution in mouse S180 cells xenografted Kunming mouse tumor at 370 kBq/0.1 mL, iv after 120 mins by gamma counting; format: ADME, organism-based, Neoplasm, CCRF S-180; details: in vivo, 2 h
[21] = system: Brain; experiment: Biodistribution in mouse S180 cells xenografted Kunming mouse brain at 370 kBq/0.1 mL, iv after 60 mins by gamma counting; format: ADME, organism-based, CCRF S-180; details: in vivo, 1 h
[22] = system: Liver; experiment: Biodistribution in mouse S180 cells xenografted Kunming mouse liver at 370 kBq/0.1 mL, iv after 120 mins by gamma counting; format: ADME, organism-based, CCRF S-180; details: in vivo, 2 h
[23] = system: Spleen; experiment: Biodistribution in mouse S180 cells xenografted Kunming mouse spleen at 370 kBq/0.1 mL, iv after 30 mins by gamma counting; format: ADME, organism-based, CCRF S-180; details: in vivo, 0.5 h
[24] = system: Kidney; experiment: Biodistribution in mouse S180 cells xenografted Kunming mouse kidney at 370 kBq/0.1 mL, iv after 120 mins by gamma counting; format: ADME, organism-based, CCRF S-180; details: in vivo, 2 h
[25] = system: Lung; experiment: Biodistribution in mouse S180 cells xenografted Kunming mouse lung at 370 kBq/0.1 mL, iv after 5 mins by gamma counting; format: ADME, organism-based, CCRF S-180; details: in vivo
[26] = system: Liver; experiment: Biodistribution in mouse S180 cells xenografted Kunming mouse liver at 370 kBq/0.1 mL, iv after 5 mins by gamma counting; format: ADME, organism-based, CCRF S-180; details: in vivo
[27] = system: Nucleic Acid; experiment: Ratio of drug level in tumor to blood in mouse S180 cells xenografted Kunming mouse at 370 kBq/0.1 mL, iv after 120 mins by gamma counting; format: ADME, organism-based, CCRF S-180; details: tumour, 2 h
[28] = system: Kidney; experiment: Biodistribution in mouse S180 cells xenografted Kunming mouse kidney at 370 kBq/0.1 mL, iv after 30 mins by gamma counting; format: ADME, organism-based, CCRF S-180; details: in vivo, 0.5 h
[29] = system: Kidney; experiment: Biodistribution in mouse S180 cells xenografted Kunming mouse kidney at 370 kBq/0.1 mL, iv after 60 mins by gamma counting; format: ADME, organism-based, CCRF S-180; details: in vivo, 1 h
[30] = system: Heart; experiment: Biodistribution in mouse S180 cells xenografted Kunming mouse heart at 370 kBq/0.1 mL, iv after 30 mins by gamma counting; format: ADME, organism-based, CCRF S-180; details: in vivo, 0.5 h
[31] = system: Kidney; experiment: Biodistribution in mouse S180 cells xenografted Kunming mouse kidney at 370 kBq/0.1 mL, iv after 15 mins by gamma counting; format: ADME, organism-based, CCRF S-180; details: in vivo, 0.25 h
[32] = system: Nucleic Acid; experiment: Ratio of drug level in tumor to muscle in mouse S180 cells xenografted Kunming mouse at 370 kBq/0.1 mL, iv after 5 mins by gamma counting; format: ADME, organism-based, CCRF S-180; details: in vivo
[33] = system: Nucleic Acid; experiment: Ratio of drug level in tumor to brain in mouse S180 cells xenografted Kunming mouse at 370 kBq/0.1 mL, iv after 60 mins by gamma counting; format: ADME, organism-based, CCRF S-180; details: in vivo, 1 h
[34] = system: Nucleic Acid; experiment: Ratio of drug level in tumor to blood in mouse S180 cells xenografted Kunming mouse at 370 kBq/0.1 mL, iv after 5 mins by gamma counting; format: ADME, organism-based, CCRF S-180; details: tumour
[35] = system: Heart; experiment: Biodistribution in mouse S180 cells xenografted Kunming mouse heart at 370 kBq/0.1 mL, iv after 60 mins by gamma counting; format: ADME, organism-based, CCRF S-180; details: in vivo, 1 h
[36] = system: Blood; experiment: Biodistribution in mouse S180 cells xenografted Kunming mouse blood at 370 kBq/0.1 mL, iv after 30 mins by gamma counting; format: ADME, organism-based, CCRF S-180; details: in vivo, 0.5 h
[37] = system: Blood; experiment: Biodistribution in mouse S180 cells xenografted Kunming mouse blood at 370 kBq/0.1 mL, iv after 15 mins by gamma counting; format: ADME, organism-based, CCRF S-180; details: in vivo, 0.25 h
[38] = system: Lung; experiment: Biodistribution in mouse S180 cells xenografted Kunming mouse lung at 370 kBq/0.1 mL, iv after 15 mins by gamma counting; format: ADME, organism-based, CCRF S-180; details: in vivo, 0.25 h
[39] = system: Blood; experiment: Biodistribution in mouse S180 cells xenografted Kunming mouse blood at 370 kBq/0.1 mL, iv after 5 mins by gamma counting; format: ADME, organism-based, CCRF S-180; details: in vivo
[40] = system: Brain; experiment: Biodistribution in mouse S180 cells xenografted Kunming mouse brain at 370 kBq/0.1 mL, iv after 120 mins by gamma counting; format: ADME, organism-based, CCRF S-180; details: in vivo, 2 h
[41] = system: Nucleic Acid; experiment: Ratio of drug level in tumor to blood in mouse S180 cells xenografted Kunming mouse at 370 kBq/0.1 mL, iv after 30 mins by gamma counting; format: ADME, organism-based, CCRF S-180; details: tumour, 0.5 h
[42] = Partition coefficient, log P of the compound; format: physicochemical; details: octanol/water

## Cc1cc(NCC[18F])n2ncc(C#N)c2n1
[1]
  Drug uptake: 3.77 % ID/g
[2]
  Drug uptake: 3.42 % ID/g
[3]
  Drug uptake: 2.47 % ID/g
[4]
  Stability: Stable
[5]
  Ratio: 2.23
[6]
  Ratio: 1.62
[7]
  Drug uptake: 4.02 % ID/g
[8]
  Ratio: 1.81
[9]
  Drug uptake: 2.45 % ID/g
[10]
  Drug uptake: 2.54 % ID/g
[11]
  Drug uptake: 5.53 % ID/g
[12]
  Ratio: 1.09
[13]
  Ratio: 1.14
[14]
  Drug uptake: 3.17 % ID/g
[15]
  Drug uptake: 4.37 % ID/g
[16]
  Ratio: 0.59
[17]
  Drug uptake: 2.64 % ID/g
[18]
  Drug uptake: 3.99 % ID/g
[19]
  Drug uptake: 3.63 % ID/g
[20]
  Drug uptake: 2.88 % ID/g
[21]
  Drug uptake: 1.93 % ID/g
[22]
  Drug uptake: 1.84 % ID/g
[23]
  Drug uptake: 3.43 % ID/g
[24]
  Drug uptake: 1.92 % ID/g
[25]
  Drug uptake: 6.61 % ID/g
[26]
  Drug uptake: 6.99 % ID/g
[27]
  Ratio: 0.98
[28]
  Drug uptake: 3.28 % ID/g
[29]
  Drug uptake: 2.58 % ID/g
[30]
  Drug uptake: 4.06 % ID/g
[31]
  Drug uptake: 5.04 % ID/g
[32]
  Ratio: 0.47
[33]
  Ratio: 1.53
[34]
  Ratio: 0.39
[35]
  Drug uptake: 3.46 % ID/g
[36]
  Drug uptake: 4.49 % ID/g
[37]
  Drug uptake: 4.65 % ID/g
[38]
  Drug uptake: 3.79 % ID/g
[39]
  Drug uptake: 4.83 % ID/g
[40]
  Drug uptake: 1.79 % ID/g
[41]
  Ratio: 1.23
[42]
  logP: 0.68

## Cc1cc(NCCNC(=O)c2ccc([N+](=O)[O-])cc2[18F])n2ncc(C#N)c2n1
[1]
  Drug uptake: 1.19 % ID/g
[2]
  Drug uptake: 1.96 % ID/g
[3]
  Drug uptake: 0.12 % ID/g
[4]
  Stability: Stable
[5]
  Ratio: 10.44
[6]
  Ratio: 12.35
[7]
  Drug uptake: 10.12 % ID/g
[8]
  Ratio: 1.4
[9]
  Drug uptake: 4.07 % ID/g
[10]
  Drug uptake: 0.19 % ID/g
[11]
  Drug uptake: 5.77 % ID/g
[12]
  Ratio: 0.77
[13]
  Ratio: 0.96
[14]
  Drug uptake: 0.38 % ID/g
[15]
  Drug uptake: 1.99 % ID/g
[16]
  Ratio: 5.87
[17]
  Drug uptake: 0.28 % ID/g
[18]
  Drug uptake: 3.82 % ID/g
[19]
  Drug uptake: 0.45 % ID/g
[20]
  Drug uptake: 0.21 % ID/g
[21]
  Drug uptake: 0.08 % ID/g
[22]
  Drug uptake: 2.05 % ID/g
[23]
  Drug uptake: 0.99 % ID/g
[24]
  Drug uptake: 0.74 % ID/g
[25]
  Drug uptake: 5.6 % ID/g
[26]
  Drug uptake: 17.9 % ID/g
[27]
  Ratio: 2.5
[28]
  Drug uptake: 5.63 % ID/g
[29]
  Drug uptake: 1.83 % ID/g
[30]
  Drug uptake: 1.16 % ID/g
[31]
  Drug uptake: 8.45 % ID/g
[32]
  Ratio: 0.59
[33]
  Ratio: 8.69
[34]
  Ratio: 0.43
[35]
  Drug uptake: 0.63 % ID/g
[36]
  Drug uptake: 1.42 % ID/g
[37]
  Drug uptake: 2.5 % ID/g
[38]
  Drug uptake: 2.6 % ID/g
[39]
  Drug uptake: 5.23 % ID/g
[40]
  Drug uptake: 0.04 % ID/g
[41]
  Ratio: 0.88
[42]
  logP: 0.69
